These results are taken from patent publication US9579306B2, “Substituted 2-imidazolidinones and 2-imidazolones and their use in the treatment of cancer” (UNIVERSITÉ LAVAL, priority 2011, dated 2017).

Each structure is given as a SMILES string.

As a reminder, the melting point is the temperature, or range, at which the solid turns liquid. Take `CCCN1CCN(c2ccc(S(=O)(=O)Oc3cc(OC)c(OC)c(OC)c3)cc2)C1=O` [Compound 101, 3,4,5-trimethoxyphenyl 4-(2-oxo-3-propylimidazolidin-1-yl)benzenesulfonate]: the melting point lay within 133 to 134 °C. `CCCN1CCN(c2ccc(S(=O)(=O)Oc3cc(OC)cc(OC)c3)cc2)C1=O` [Compound 104, 3,5-dimethoxyphenyl 4-(2-oxo-3-propylimidazolidin-1-yl)benzenesulfonate] gave a melting point of 104 to 105 °C.
